Earlier results, collected in patent US20110082127A1, “NEW INJECTABLE FORMULATIONS CONTAINING PROGESTERONE” (priority 2004, published 2011).

Details: stated by the known art

For `OC[C@H]1O[C@@H]2O[C@H]3[C@H](O)[C@@H](O)[C@@H](O[C@H]4[C@H](O)[C@@H](O)[C@@H](O[C@H]5[C@H](O)[C@@H](O)[C@@H](O[C@H]6[C@H](O)[C@@H](O)[C@@H](O[C@H]7[C@H](O)[C@@H](O)[C@@H](O[C@H]8[C@H](O)[C@@H](O)[C@@H](O[C@H]1[C@H](O)[C@H]2O)O[C@@H]8CO)O[C@@H]7CO)O[C@@H]6CO)O[C@@H]5CO)O[C@@H]4CO)O[C@@H]3CO` [unsubstituted β-cyclodextrin, β-cyclodextrin], the water solubility is listed as 1.8 g/100 ml.
